Results on 16 molecules are retold here after patent US10759751B2, “Substituted spirocyclohexanes as muscarinic M1 receptor and/or M4 receptor agonists” (Heptares Therapeutics Limited, priority 2016, dated 2020).

A value given as a limit tells only on which side of the number the result lay.

Holding throughout (type): cell-based
The target in assay [1] is T1, human muscarinic M2 receptor (Homo sapiens, UniProt P08172).
T1 sequence (P08172 1-466): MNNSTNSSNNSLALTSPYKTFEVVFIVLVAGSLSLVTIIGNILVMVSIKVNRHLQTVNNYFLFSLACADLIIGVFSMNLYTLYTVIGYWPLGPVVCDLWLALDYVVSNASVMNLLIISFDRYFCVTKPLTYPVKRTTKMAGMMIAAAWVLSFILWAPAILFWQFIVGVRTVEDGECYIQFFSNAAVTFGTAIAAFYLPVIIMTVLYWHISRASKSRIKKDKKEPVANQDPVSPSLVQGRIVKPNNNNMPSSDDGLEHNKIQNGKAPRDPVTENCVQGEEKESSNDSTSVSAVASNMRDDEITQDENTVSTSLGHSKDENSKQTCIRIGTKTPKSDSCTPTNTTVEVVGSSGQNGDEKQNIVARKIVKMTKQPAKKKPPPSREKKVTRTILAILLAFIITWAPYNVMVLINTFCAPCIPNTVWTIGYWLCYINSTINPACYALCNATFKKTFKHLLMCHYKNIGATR
Briefly: Alphascreen Surefire phospho-ERK1/2 functional assay, M2. The conditions noted are these: for EC50: CHO cells stably expressing human M2, phospho-ERK1/2, read-out: pEC50 M2 (converted); for Emax: CHO, read-out: M2 % Emax cf. ACh. The method, then:
(§1) Functional assays were performed using the Alphascreen Surefire phospho-ERK1/2 assay (Crouch & Osmond, Comb. Chem. High Throughput Screen, 2008). ERK1/2 phosphorylation is a downstream consequence of both Gq/11 and Gi/o protein coupled receptor activation, making it highly suitable for the assessment of M1, M3 (Gq/11 coupled) and M2, M4 receptors (Gi/o coupled), rather than using different assay formats for different receptor subtypes. CHO cells stably expressing the human muscarinic M1, M2, M3 or M4 receptor were plated (25K/well) onto 96-well tissue culture plates in MEM-alpha+10% dialysed FBS. Once adhered, cells were serum-starved overnight. Agonist stimulation was performed by the addition of 5 μL agonist to the cells for 5 min (37° C.). Media was removed and 50 μL of lysis buffer added. After 15 min, a 4 μL sample was transferred to 384-well plate and 7 μL of detection mixture added. Plates were incubated for 2 h with gentle agitation in the dark and then read on a PHERAstar plate reader.
(§2) pEC50 and Emax figures were calculated from the resulting data for each receptor subtype.
(In general: Bead proximity is the source of the signal in Alpha formats.)

Assay [2] deals with T2, human muscarinic M1 receptor (Homo sapiens, UniProt P11229).
T2 sequence (P11229 1-460): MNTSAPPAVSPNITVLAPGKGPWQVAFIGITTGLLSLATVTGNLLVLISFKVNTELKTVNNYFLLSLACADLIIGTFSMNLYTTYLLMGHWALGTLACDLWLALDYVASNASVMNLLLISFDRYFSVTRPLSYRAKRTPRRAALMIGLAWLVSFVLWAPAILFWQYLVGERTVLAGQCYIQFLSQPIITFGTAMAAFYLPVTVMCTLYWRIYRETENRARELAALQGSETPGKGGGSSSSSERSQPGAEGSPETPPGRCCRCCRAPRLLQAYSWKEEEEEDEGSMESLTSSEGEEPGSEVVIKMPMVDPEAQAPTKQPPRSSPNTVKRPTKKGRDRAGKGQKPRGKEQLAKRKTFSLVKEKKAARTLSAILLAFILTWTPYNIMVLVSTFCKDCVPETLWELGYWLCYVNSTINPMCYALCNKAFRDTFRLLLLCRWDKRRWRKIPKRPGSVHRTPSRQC
In words: Alphascreen Surefire phospho-ERK1/2 functional assay, M1. The conditions noted are these: for EC50: CHO cells stably expressing human M1, phospho-ERK1/2, read-out: pEC50 M1 (converted); for Emax: CHO, read-out: M1 % Emax cf. ACh, CHO cells stably expressing human M1, Emax relative to ACh. The method, then:
as §1, §2

For assay [3], the target named is T3, human muscarinic M3 receptor (Homo sapiens, UniProt P20309).
T3 construct: expressed in transfected cells
T3 sequence (P20309 whole entry): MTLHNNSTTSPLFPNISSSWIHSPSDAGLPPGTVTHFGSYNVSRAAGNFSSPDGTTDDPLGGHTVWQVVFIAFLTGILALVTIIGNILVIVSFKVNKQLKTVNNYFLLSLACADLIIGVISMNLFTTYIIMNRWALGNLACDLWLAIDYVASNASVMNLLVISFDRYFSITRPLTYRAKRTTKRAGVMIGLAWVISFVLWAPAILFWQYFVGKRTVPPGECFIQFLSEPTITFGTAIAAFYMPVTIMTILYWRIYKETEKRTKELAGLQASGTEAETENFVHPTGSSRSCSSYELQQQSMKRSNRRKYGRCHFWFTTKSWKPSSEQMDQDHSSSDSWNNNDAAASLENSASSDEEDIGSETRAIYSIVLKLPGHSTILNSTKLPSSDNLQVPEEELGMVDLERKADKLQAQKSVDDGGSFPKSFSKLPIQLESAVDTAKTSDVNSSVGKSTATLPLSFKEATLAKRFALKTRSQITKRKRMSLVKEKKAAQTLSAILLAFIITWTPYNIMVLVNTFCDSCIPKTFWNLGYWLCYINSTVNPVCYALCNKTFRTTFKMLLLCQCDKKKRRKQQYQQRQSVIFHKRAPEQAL
In words: Alphascreen Surefire phospho-ERK1/2 functional assay, M3. The conditions noted are these: for EC50: phospho-ERK1/2, read-out: pEC50 M3 (converted); for Emax: CHO, read-out: M3 % Emax cf. ACh. The method, then:
as §1, §2

Assay [4] concerns the target T4, human muscarinic M4 receptor (Homo sapiens, UniProt P08173).
T4 construct: expressed in transfected cells
T4 sequence (P08173 1-479): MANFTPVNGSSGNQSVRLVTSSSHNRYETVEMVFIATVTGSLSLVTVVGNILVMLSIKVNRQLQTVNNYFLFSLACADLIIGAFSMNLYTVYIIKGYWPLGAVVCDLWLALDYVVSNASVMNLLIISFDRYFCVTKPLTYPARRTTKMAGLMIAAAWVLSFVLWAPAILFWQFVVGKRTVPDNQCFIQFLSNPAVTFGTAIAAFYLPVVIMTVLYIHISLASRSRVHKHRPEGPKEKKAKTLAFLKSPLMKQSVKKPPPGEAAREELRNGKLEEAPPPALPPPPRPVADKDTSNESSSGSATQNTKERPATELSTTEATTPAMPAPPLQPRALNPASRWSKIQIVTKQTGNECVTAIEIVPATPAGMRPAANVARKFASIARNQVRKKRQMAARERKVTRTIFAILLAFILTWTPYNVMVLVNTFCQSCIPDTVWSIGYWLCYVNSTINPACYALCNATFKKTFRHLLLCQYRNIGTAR
In words: Alphascreen Surefire phospho-ERK1/2 functional assay, M4. The conditions noted are these: for EC50: phospho-ERK1/2, read-out: pEC50 M4 (converted); for Emax: CHO, read-out: M4 % Emax cf. ACh, CHO cells stably expressing human M4. On the procedure: as §1, §2

The mark [5] stands for this setting: CHO cells stably expressing human M3.
The mark [6] stands for this setting: CHO cells stably expressing human M4.

On to `CCOC(=O)N1CCCN(C2CCC(C#N)(c3cccc(F)c3)CC2)CC1` (mixture of isomers) [3-2 mixture of isomers], for which the EC50 in assay [1] is > 20000 nM; in assay [2], 25.1 nM; in assay [3] (setting [5]), > 20000 nM; in assay [4] (setting [6]), 74.1 nM. Besides, the Emax in assay [1] was determined as 7%; in assay [2] it was 96%; in assay [3], 46%; in assay [4] (Emax relative to ACh), 76%.
Consider `CCOC(=O)N1CCCN(C2CCC(C#N)(c3ccc(F)cc3)CC2)CC1` (mixture of isomers) [3-3 mixture of isomers], for which the EC50 is > 20000 nM in assay [1], 9.77 nM in assay [2], > 20000 nM in assay [3] (setting [5]) and 63.1 nM in assay [4] (setting [6]). The Emax in assay [1] came out at 38%; in assay [2] it was 101%; in assay [3], 35%; in assay [4] (Emax relative to ACh), 85%.
For the molecule `CCOC(=O)N1CCCN(C2CCC(C#N)(c3ccccc3Cl)CC2)CC1` (mixture of isomers) [3-4 mixture of isomers], the EC50 in assay [1] was > 20000 nM; in assay [2] it was 295 nM; in assay [3] (setting [5]), > 20000 nM; in assay [4] (setting [6]), 832 nM. The maximal effect (Emax) in assay [1] was 12%; in assay [2], 86%; in assay [3] it was 40%; in assay [4] (Emax relative to ACh), 46%.
Consider `CCOC(=O)N1CCCN(C2CCC(C#N)(c3cccc(Cl)c3)CC2)CC1` (mixture of isomers) [3-5 mixture of isomers], for which the EC50 in assay [1] was > 20000 nM; in assay [2], 83.2 nM; in assay [3] (setting [5]) it was > 20000 nM; in assay [4] (setting [6]), 309 nM. The Emax is 5% in assay [1], 101% in assay [2], 36% in assay [3] and 47% in assay [4] (Emax relative to ACh).
With `CCOC(=O)N1CCCN(C2CCC(C#N)(c3ccc(Cl)cc3)CC2)CC1` (mixture of isomers) [3-6 mixture of isomers], the EC50 in assay [1] is > 20000 nM; in assay [2] it was 9.55 nM; in assay [3] (setting [5]), > 20000 nM; in assay [4] (setting [6]) it was 100 nM. The Emax in assay [1] came out at 11%; in assay [2] it was 105%; in assay [3] it was 38%; in assay [4] (Emax relative to ACh) it was 62%.
In the case of `CCOC(=O)N1CCCN(C2CCC(C#N)(c3ccccc3C)CC2)CC1` (mixture of isomers) [3-7 mixture of isomers], the EC50 is > 20000 nM in assay [1], 389 nM in assay [2], > 20000 nM in assay [3] (setting [5]) and 1700 nM in assay [4] (setting [6]). Moreover, the Emax in assay [1] amounted to 35%; in assay [2] it was 101%; in assay [3], 34%; in assay [4] (Emax relative to ACh), 48%.
As for `CCOC(=O)N1CCCN(C2CCC(C#N)(c3cccc(C)c3)CC2)CC1` (mixture of isomers) [3-8 mixture of isomers], the EC50 in assay [1] was > 20000 nM; in assay [2] it was 35.5 nM; in assay [3] (setting [5]), > 20000 nM; in assay [4] (setting [6]), 105 nM. For the same molecule, the Emax stood at 18% in assay [1], 106% in assay [2], 7% in assay [3] and 62% in assay [4] (Emax relative to ACh).
As for `CCOC(=O)N1CCCN(C2CCC(C#N)(c3ccc(OC)cc3)CC2)CC1` (mixture of isomers) [3-9 mixture of isomers], the EC50 in assay [1] was > 20000 nM; in assay [2], 115 nM; in assay [3] (setting [5]) it was > 20000 nM; in assay [4] (setting [6]), > 20000 nM. For the same molecule, the Emax came to 33% in assay [1], 98% in assay [2], 0% in assay [3] and 2% in assay [4] (Emax relative to ACh).
On to `CCOC(=O)N1CCCN(C2CCC(C#N)(c3ccccn3)CC2)CC1` (mixture of isomers) [3-11 mixture of isomers], for which the EC50 in assay [1] was > 20000 nM; in assay [2] it was 72.4 nM; in assay [3] (setting [5]), > 20000 nM; in assay [4] (setting [6]), 389 nM. Moreover, the Emax in assay [1] turned out to be 43%; in assay [2] it was 97%; in assay [3], 15%; in assay [4] (Emax relative to ACh) it was 99%.
On to `CCOC(=O)N1CCCN(C2CCC(C#N)(c3ccncc3)CC2)CC1` (mixture of isomers) [3-12 mixture of isomers], for which the EC50 in assay [1] was > 20000 nM; in assay [2] it was 155 nM; in assay [3] (setting [5]), > 20000 nM; in assay [4] (setting [6]), 1070 nM. Moreover, the Emax in assay [1] was 5%; in assay [2], 116%; in assay [3] it was 3%; in assay [4] (Emax relative to ACh), 48%.
Consider `CCOC(=O)N1CCCN(C2CCC(C#N)(c3ccc(Cl)cn3)CC2)CC1` (mixture of isomers) [3-16 mixture of isomers], for which the EC50 in assay [1] was > 20000 nM; in assay [2] it was 6.61 nM; in assay [3] (setting [5]) it was > 20000 nM; in assay [4] (setting [6]), 126 nM. For the same molecule, the Emax in assay [1] amounted to 10%; in assay [2], 103%; in assay [3] it was 39%; in assay [4] (Emax relative to ACh) it was 90%.
In the case of `CCOC(=O)N1CCCN(C2CCC(C#N)(c3ccc(C(F)(F)F)cn3)CC2)CC1` (mixture of isomers) [3-21 mixture of isomers], the EC50 is > 20000 nM in assay [1], 724 nM in assay [2], > 20000 nM in assay [3] (setting [5]) and > 20000 nM in assay [4] (setting [6]). For the same molecule, the Emax turned out to be 3% in assay [1], 90% in assay [2], 2% in assay [3] and 53% in assay [4] (Emax relative to ACh).
As to `Cc1noc(C2CC2CNC2CCC3(CC2)C(=O)Nc2ccccc23)n1` (single isomer, unassigned) [23-1 Isomer 1], the EC50 in assay [2] was 347 nM; in assay [3] (setting [5]) it was > 20000 nM; in assay [4] (setting [6]) it was 251 nM. Moreover, the results for the Emax in assay [2], in assay [3] and in assay [4] (Emax relative to ACh) were 113%, 8% and 78%, respectively.
`N#CC1(c2ccc(F)cn2)CCC(N[C@@H]2CC[C@H](c3nc(C(F)(F)F)no3)C2)CC1` (single isomer, unassigned) [28-1 Isomer 2]: the EC50 was 977 nM in assay [2] and 832 nM in assay [4] (setting [6]). The Emax in assay [2] was 59%; in assay [4] (Emax relative to ACh), 45%.
Turning to `Cc1ccc(C2(C#N)CCC(N[C@@H]3CC[C@H](c4nc(C(F)(F)F)no4)C3)CC2)nc1` (single isomer, unassigned) [28-2 Isomer 2], the EC50 was 3470 nM in assay [2] and 955 nM in assay [4] (setting [6]). The Emax in assay [2] is 40%; in assay [4] (Emax relative to ACh), 55%.
For the molecule `CC(=O)OCC[N+](C)(C)C` [ACh], the “M3 % Emax cf. ACh” value in assay [3] (CHO cells stably expressing human M3, Emax relative to ACh) is on record as 115%. The “M4 % Emax cf. ACh” value in assay [4] (CHO cells stably expressing human M4, Emax relative to ACh) was 110%.

By Emax is commonly meant the maximal effect, on the per cent scale that the assay sets.
